Measured values from patent publication US12054495B2, “Substituted macrocyclic compounds and related methods of treatment” (Alkermes, Inc., priority 2019, dated 2024).
Like-named read-outs stand apart in the source and are kept apart here.

Legend:
Sprague-Dawley rats = experiment: Assessment of wake promotion in Sprague-Dawley rats (EEG/EMG); format: in vivo; conditions: Rattus norvegicus; PO, 3 mpk, male Sprague-Dawley rats, dosed at ZT5, 6-hour post-dose period; read-out: Mean cortical activation time (% vehicle treatment)
Procedure: Wake promotion was assessed using electroencephalography (EEG) and electromyography (EMG) in adult male Sprague-Dawley rats (350-600 g). All rats (Charles River Laboratories, Raleigh, NC, USA) were intraperitoneally implanted with telemetry devices (F50-EEE, Data Sciences International Inc., M/N, USA) under isoflurane anesthesia. For EEG, stainless steel screws were implanted over frontal cortex and parietal cortex, and reference screws were placed over cerebellum. Additionally, an electrode was placed in neck muscle for EMG. Rats were given carprofen post-surgery and underwent a 7 to 10-day recovery period. Rats habituated to the experimental room for 7 days and were maintained on a 12-hour light-dark cycle.
EEG and EMG data were recorded using the DSI telemetry system and Ponemah software (Data Sciences International Inc., MN, USA). Sleep-wake stages were scored both manually and with Somnivore, a supervised machine learning software platform, in 10 second epocs. Records were visually inspected as needed post-processing.
All test compounds were dissolved in 5% DMSO and suspended in 95% saline with 0.5% methylcellulose and 0.5% tween. […] Unless otherwise indicated, all compounds were dosed orally. Recordings for each rat were initiated immediately after dosing and lasted for 6 hours post-dose.
Two key endpoints include wakefulness time and cortical activation time. Wakefulness time is derived from the sleep-wake stage analysis. Cortical activation time is based on the duration in which frontal gamma oscillatory activity (30-100 Hz), a key feature of wakefulness, was elevated relative to a pre-treatment baseline. Mean cortical activation time was computed relative to vehicle treatment for the 6-hour post-dose period.

human hepatocytes = experiment: Hepatocytes stability assay (human hepatocytes); format: in vitro ADME; conditions: for Extraction Ratio (ER): scaled hepatic clearance divided by liver blood flow, fu assumed unity
Procedure, shortened: (§1)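 Cryopreserved pooled (50 donors, mixed gender) human hepatocytes at 1×10^6 cells/mL in Krebs-Henseleit buffer with 1 μM compound (0.1% DMSO), 37 degrees C, sampled 0–240 min. Parent depletion by LC-MS/MS; first-order fit gave T1/2 and CLint, scaled to hepatic clearance via well-stirred model (fu assumed 1); extraction ratio = CL,hep/liver blood flow.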

[1] = Hepatocytes stability assay (human hepatocytes); format: in vitro ADME; conditions: both sexes, cryopreserved hepatocytes, 1 μM test compound, 1×10^6 cell/mL, 37 degrees C, read-out: CLint (μL/min/million cells)
Procedure, shortened: as §1

MDR1 = experiment: MDCK-MDR1 permeability assay; format: in vitro ADME; conditions: dog; for Papp A→B at 2 h, 3 μM: MDCK-MDR1, MDCK-MDR1 cells, apical to basolateral, 3 μM test compound, 2 hours at 37 degrees C; for efflux ratio at 2 h, 3 μM: MDCK-MDR1, Papp (basolateral to apical) divided by Papp (apical to basolateral), MDCK-MDR1 cells, read-out: Efflux ratio (ER)
Procedure: (§2) The bidirectional permeability (Apical to Basal and Basal to Apical directions) of test compounds in MDCK-MIDR1 cells were evaluated using MDCK-MIDR1 cells seeded in Solvo PreadyPort™ MIDCK 96-well plate. Once the plate was received from ReadyCell (Barcelona, Spain), it was treated as per PreadyPort™ user's manual.
(§3) For the Apical to Basolateral (A→B) permeability, 80 μL of test compound (3 μM) co-dosed with LY (Lucifer Yellow) (100 μM) in HBSS (Hank's Balanced Salt Solution) assay buffer was added to the donor side (A) while 250 μL of HBSS buffer was added to the receiver side (B). For the Basolateral to Apical (B→A) permeability, 255 μL of test compound (3 μM) in HBSS assay buffer was added to the donor side (B) while 75 μL of HBSS buffer containing LY (100 μM) was added to the receiver side (A).
(§4) The plate was placed in an incubator set at 37 degrees C. After 10 minutes of pre-warming, 5 μL aliquot was taken from donor compartment and set aside as the dosing solution. The MDCK-MDR1 incubation plate was placed back into the incubator for 2 hours of incubation at 37 degrees C. After 2 hours of incubation, 25 μL and 5 μL aliquots were removed from the receiver and donor sides, respectively. To the 5 μL aliquots taken from the donor sides (before and after a 2-hour incubation) were diluted with 20 μL of the HBSS buffer. All samples were mixed with 150 μL with acetonitrile containing internal standard (IS) and 200 μL water, and analyzed by LC-MS/MS.
(§5) The apparent permeability (Papp) was calculated using the following formula: Papp=dQ/dt×1/A×C0 where: • dQ/dt: amount of translocated material over incubation time (nmol/s) • A: area of insert (0.14 cm^2 for PreadyPort™ MDR1-96) • C0: initial concentration of product applied in apical (A→B) or basal (B→A) compartment (nmol/mL)
(§6) The efflux ratio (ER) was measured by dividing the Papp (basolateral to apical direction) by Papp (apical to basolateral direction). It is a general measure of the involvement of active processes. An ER>2 is considered positive for active transport.
(§7) The data reported in Table 3 were obtained according to the MDCK-MIDR1 permeability assay described above.

[2] = amide bond, HATU/DIEA
[3] = from CC(C)(C)OC(=O)N[C@H]1CCCN[C@H]1COC1CCC(c2ccccc2CCC(=O)O)CC1; amide bond; 13-membered ring; HATU/DIEA; MeCN; 0.36 mM; 2.0 h
MDCK-MDR1 cells = experiment: MDCK-MDR1 permeability assay; format: in vitro ADME; conditions: MDCK-MDR1 cells; for Papp A→B (10^−6 cm/s): apical to basolateral, 3 μM test compound, 2 hours at 37 degrees C
Procedure: as §2, §3, §4, §5, §6, §7

[4] = amide bond, HATU/DIEA; remark: listed apart in the source
[5] = molecular target: T1, human orexin-2 receptor (OX2R) (Homo sapiens, UniProt O43614); experiment: Human OX2R IP1 assay; format: cell-based; conditions: T-Rex CHO cells stably overexpressing human OX2R, IP1 accumulation, 1 hr at 37 degrees C; mean EC50; ∧ = racemic mixture
T1 construct: expressed in transfected cells
T1 sequence (O43614 1-444): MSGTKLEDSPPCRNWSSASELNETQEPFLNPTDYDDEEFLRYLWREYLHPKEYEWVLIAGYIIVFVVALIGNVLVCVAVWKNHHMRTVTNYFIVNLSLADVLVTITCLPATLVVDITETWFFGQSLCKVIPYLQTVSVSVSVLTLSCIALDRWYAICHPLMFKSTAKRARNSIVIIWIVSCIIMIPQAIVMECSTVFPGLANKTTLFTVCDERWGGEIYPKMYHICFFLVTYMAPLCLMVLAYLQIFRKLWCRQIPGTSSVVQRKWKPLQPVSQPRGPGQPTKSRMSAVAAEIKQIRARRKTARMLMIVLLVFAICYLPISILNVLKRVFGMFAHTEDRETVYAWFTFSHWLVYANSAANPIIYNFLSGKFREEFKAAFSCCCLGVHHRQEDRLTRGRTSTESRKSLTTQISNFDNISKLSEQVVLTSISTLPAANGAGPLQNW
Procedure: T-Rex CHO cells stably overexpressing the human orexin-2 receptor (OX2R) were induced overnight with 1 μg/mL of doxycycline in a T225 flask. 24 hours post induction, cells were lifted with accutase and plated into a 384-well proxy plate at 30,000 cells/well. Cells were then treated with different test compounds in 1× stimulation buffer containing 10 mM Hepes, 1 mM CaCl2), 0.5 mM MgCl2, 4.2 mM KCl, 146 mM NaCl, 5.5 mM glucose, and 50 mM LiCl, pH 7.4, for 1 hr at 37 degrees C. Following incubation, the reaction was terminated by the addition of detection mix, which is composed of IP1-d2 and anti-IP1-cryptate diluted in lysis buffer as well as 1× stimulation buffer. The plates were allowed to incubate for 1 hour at room temperature and were then read in the EnVision® multimode plate reader, measuring inositol phosphate levels.
Cisbio IP1 is a cell-based functional assay quantifying the accumulation of inositol monophosphate (IP), a metabolite released as a result of orexin 2 receptor activation through the phospholipase C-Gq signaling pathway. This is a competitive immunoassay in which the IP1 produced by the cells upon receptor activation competes with the IP1 analog coupled to the d2 fluorophore (acceptor) for binding to an anti-IP1 monoclonal antibody labeled with Eu cryptate (donor). The measured HTRF-FRET based signal is inversely proportional to the IP1 concentration produced.
The EC50 values reported in Table 2 were obtained according to the human OX2R IP1 assay described above. Data are the mean EC50 values ±S.E.M. The compound methyl (2R,3S)-3-((methylsulfonyl)amino)-2-(((cis-4-phenylcyclohexyl)oxy)methyl)-piperidine-1-carboxylate is a reference compound which is disclosed in Example 5 of PCT publication no. WO2017/135306.

| Compound | Extraction Ratio (ER) (human hepatocytes) | hepatocyte CLint at 1 μM [1] | Papp A→B at 2 h, 3 μM (MDR1) | efflux ratio at 2 h, 3 μM (MDR1) | response vs control in vivo at 3 mg/kg (Sprague-Dawley rats) | other results |
| --- | --- | --- | --- | --- | --- | --- |
| CS(=O)(=O)N[C@H]1CCCN2C(=O)COc3ccccc3C3CCC(CC3)OCC12 (stereo partly shown) [Compound 2] | 0.67 | 13 µL/min/1e6 cells | 0.89 ×10⁻⁶ cm/s | 39 | 190% | – |
| CS(=O)(=O)N[C@H]1CCCN2C(=O)COc3c(F)cc(F)cc3C3CCC(CC3)OCC12 (stereo partly shown) [Compound 12] | 0.66 | 13 µL/min/1e6 cells | 2.3 ×10⁻⁶ cm/s | 6.2 | 236% | – |
| CS(=O)(=O)N[C@H]1CCN2C(=O)COc3ccccc3C3CCC(CC3)OCC12 (stereo partly shown) [Compound 7] | 0.78 | 24 µL/min/1e6 cells | 14 ×10⁻⁶ cm/s | 2.2 | 165% | – |
| CC(C)(C)OC(=O)N[C@H]1CCCN2C(=O)CCc3ccccc3C3CCC(CC3)OC[C@@H]12 | – | – | – | – | – | ring closure, yield after HPLC ([2]; from CC(C)(C)OC(=O)N[C@H]1CCCN[C@H]1COC1CCC(c2ccccc2CCC(=O)O)CC1, 13-membered ring, MeCN, 0.36 mM, 2.0 h): 19%; ring closure, conversion [3]: 40% |
| CC(C)(C)OC(=O)N[C@H]1CCCN2C(=O)CCOc3ccccc3C3CCC(CC3)OC[C@@H]12 | – | – | – | – | – | ring closure, yield after HPLC ([2]; from CC(C)(C)OC(=O)N[C@H]1CCCN[C@H]1COC1CCC(c2ccccc2OCCC(=O)O)CC1, 14-membered ring, MeCN, 7.4 mM, 18.0 h): 80.3% |
| CC(C)(C)OC(=O)N[C@H]1CCCN2C(=O)COc3cccc(F)c3C3=CCC(CC3)OC[C@@H]12 (stereo partly shown) | – | – | – | – | – | ring closure, isolated yield ([4]; from CC(C)(C)OC(=O)N[C@H]1CCCN[C@H]1COC1CC=C(c2c(F)cccc2OCC(=O)O)CC1, 13-membered ring, MeCN, 2.1 mM, 2.0 h): 71% |
| CC(C)(C)OC(=O)N[C@H]1CCCN2C(=O)CCCOc3ccccc3C3CCC(CC3)OC[C@@H]12 | – | – | – | – | – | ring closure, isolated yield ([4]; from CC(C)(C)OC(=O)N[C@H]1CCCN[C@H]1COC1CCC(c2ccccc2OCCCC(=O)O)CC1, 15-membered ring, MeCN/DMF 8:1, 18.1 mM, 2.0 h): 77.9% |
| tert-butyl ((2^1S,2^4S,5^2R,5^3S)-6-oxo-3,11-dioxa-5(2,1)-piperidina-1(1,2)-benzena-2(1,4)-cyclohexanacycloundecaphane-5^3-yl)carbamate | – | – | – | – | – | ring closure, yield after HPLC ([2]; 16-membered ring, DMF/MeCN 1:2, 16.3 mM, 25.0 °C): 88.1% |
| CC(C)(C)OC(=O)N[C@H]1CCCN2C(=O)COc3nccnc3C3CCC(CC3)OC[C@@H]12 | – | – | – | – | – | ring closure, isolated yield ([4]; from CC(C)(C)OC(=O)N[C@H]1CCCN[C@H]1COC1CCC(c2nccnc2OCC(=O)O)CC1, 13-membered ring, MeCN, 2.16 mM, 1.0 h): 42.1% |

More lines, main results first:

| Extraction Ratio (ER) (human hepatocytes) | hepatocyte CLint at 1 μM [1] | Papp A→B at 2 h, 3 μM (MDR1) | efflux ratio at 2 h, 3 μM (MDR1) | Compound | response vs control in vivo at 3 mg/kg (Sprague-Dawley rats) | other results |
| --- | --- | --- | --- | --- | --- | --- |
| 0.41 | 4.6 µL/min/1e6 cells | 0.59 ×10⁻⁶ cm/s | 21 | CS(=O)(=O)N[C@H]1CCCN2C(=O)COc3ccc(Cl)cc3C3CCC(CC3)OCC12 (stereo partly shown) [Compound 51] | 166% | – |
| <0.22 | < 1.9 µL/min/1e6 cells | – | 5.2 | CS(=O)(=O)N[C@H]1CCCN2C(=O)COc3nnccc3C3CCC(CC3)OCC12 (stereo partly shown) [Compound 56] | – | Papp A→B (10^−6 cm/s) (MDCK-MDR1 cells): 0.13 10^−6 cm/s |
| 0.51 | 6.9 µL/min/1e6 cells | 0.31 ×10⁻⁶ cm/s | 58 | CS(=O)(=O)N[C@H]1CCCN2C(=O)COc3ncccc3C3CCC(CC3)OCC12 (stereo partly shown) [Compound 46] | 157% | – |
| <0.22 | < 1.9 µL/min/1e6 cells | 0.092 ×10⁻⁶ cm/s | 77 | CS(=O)(=O)N[C@H]1CCCN2C(=O)COc3nccnc3C3CCC(CC3)OCC12 (stereo partly shown) [Compound 55] | 145% | – |
| <0.22 | – | – | – | CS(=O)(=O)N[C@H]1CCCN2C(=O)COc3nnccc3[C@H]3CC[C@H](CC3)OC[C@@H]12 [Compound 66] | – | CLint (μL/min/million cells) (human hepatocytes; 1 μM test compound, 1×10^6 cell/mL, 37 degrees C): <1.9 μL/min/million cells; Papp A→B (10^−6 cm/s) (MDCK-MDR1 cells): <0.047 10^−6 cm/s; Efflux ratio (ER) (MDCK-MDR1 cells; Papp (basolateral to apical) divided by Papp (apical to basolateral), 3 μM): >9.5; EC50 [5]: < 100 nM |
